Results on 24 compounds are retold here after patent US20250099448A1, “HETEROCYCLIC COMPOUNDS” (Hoffmann-La Roche Inc., priority 2022, published 2025).

This assay addresses T1, MAGL protein (Homo sapiens, UniProt Q99685).
T1 sequence (Q99685 1-303): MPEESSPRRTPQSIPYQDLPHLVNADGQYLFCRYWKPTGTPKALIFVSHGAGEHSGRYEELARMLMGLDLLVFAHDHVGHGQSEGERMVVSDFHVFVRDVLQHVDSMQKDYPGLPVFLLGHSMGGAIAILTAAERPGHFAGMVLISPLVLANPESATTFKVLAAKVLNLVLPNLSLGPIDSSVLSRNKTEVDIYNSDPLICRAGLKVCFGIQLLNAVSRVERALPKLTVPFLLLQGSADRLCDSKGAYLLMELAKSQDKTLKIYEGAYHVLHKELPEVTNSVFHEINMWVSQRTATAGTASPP
Description: 2-AG assay: MAGL inhibitory activity by hydrolysis of 2-arachidonoylglycerol to arachidonic acid, followed by mass spectrometry. It is filed as biochemical. The following applies: 8 μM 2-arachidonoylglycerol, 15 min preincubation, 30 min reaction at RT, RapidFire MS readout. As to the method:
Compounds of formula (I) were profiled for MAGL inhibitory activity by determining the enzymatic activity by following the hydrolysis of the natural substrate 2-arachidonoylglycerol (2-AG) resulting in arachidonic acid, which can be followed by mass spectrometry. This assay is hereinafter abbreviated “2-AG assay”. The 2-AG assay was carried out in 384 well polypropylene assay plates. Compound dilutions were made in 100% DMSO in a polypropylene plate in 3-fold dilution steps to give a final concentration range in the assay from 12.5 μM to […]. Compound dilutions were added to MAGL protein in assay buffer (50 mM TRIS, 1 mM EDTA, 0.01% (v/v) Tween-20, 2.5% (v/v) DMSO). After shaking, the plate was incubated for 15 min at RT. To start the reaction, 2-arachidonoylglycerol in assay buffer was added. The final concentrations in the assay was […] for MAGL protein and 8 μM 2-arachidonoylglyerol. After shaking and 30 min incubation at RT, the reaction was quenched by the addition of two assay volumes of acetonitrile containing 4 μM of d8-arachidonic acid. The amount of arachidonic acid formed was traced by an online SPE system (Agilent Rapidfire) coupled to a triple quadrupole mass spectrometer. A C18 SPE cartridge (Agilent G9205A) was used in an acetonitrile/water liquid setup. The mass spectrometer was operated in negative electrospray mode following the mass transitions 303.1→259.1 for arachidonic acid and 311.1→267.0 for d8-arachidonic acid. The activity of the compounds was calculated based on the ratio of intensities [arachidonic acid/d8-arachidonic acid].
For the compound `O=C(O)c1ccccc1CN1CC2(C1)CN(C(=O)N1CC3(CC(c4nnc(C5CC5)[nH]4)C3)C1)C2` [Example 172, 2-[[2-[6-(5-cyclopropyl-4H-1,2,4-triazol-3-yl)-2-azaspiro[3.3]heptane-2-carbonyl]-2,6-diazaspiro[3.3]heptan-6-yl]methyl]benzoic Acid], the IC50 is 502 nM.

Compound `O=C(N1CC2(CC(c3nnc(C4CC4)[nH]3)C2)C1)N1CC2(C1)CN(C(=O)C(F)(F)F)C2` [Example 217, 1-[2-[6-(5-cyclopropyl-4H-1,2,4-triazol-3-yl)-2-azaspiro[3.3]heptane-2-carbonyl]-2,6-diazaspiro[3.3]heptan-6-yl]-2,2,2-trifluoro-ethanone] returned an IC50 of 3580 nM.

The compound `O=C(N1CC(c2ccc(N3CCC4(COC4)C3)nc2)C1)N1CC2(CC(c3nnc(C4CC4)[nH]3)C2)C1` [Example 303, [6-(5-cyclopropyl-4H-1,2,4-triazol-3-yl)-2-azaspiro[3.3]heptan-2-yl]-[3-[6-(2-oxa-7-azaspiro[3.4]octan-7 yl)-3-pyridyl]azetidin-1-yl]methanone] returned an IC50 of 6.31 nM.

`O=C(N1CC2(CC(c3nnc(C4CC4)[nH]3)C2)C1)N1CC(O)(c2ccc(N3CC(C(F)(F)F)C3)cc2)C1` [Example 306, [6-(5-Cyclopropyl-4H-1,2,4-triazol-3 yl)-2-azaspiro[3.3]heptan-2-yl]-[3-hydroxy-3-[4-[3-(trifluoromethyl)azetidin-1-yl]phenyl]azetidin-1 yl)methanone] returned an IC50 of 2.19 nM.

The compound `CC(C)(C(=O)O)c1cccc(OC2CN(C(=O)N3CC4(CC(c5nnc(C6CC6)[nH]5)C4)C3)C2)c1` [Example 387, 2-[3-[1-[6-(5-cyclopropyl-4H-1,2,4-triazol-3-yl)-2-azaspiro[3.3]heptane-2-carbonyl]azetidin-3-yl]oxyphenyl]-2-methyl-propanoic Acid] showed an IC50 of 79.6 nM.

In turn, `O=C(O)c1ccccc1-c1ccc(C2CN(C(=O)N3CC4(CC(c5nnc(C6CC6)[nH]5)C4)C3)C2)cc1` [Example 390, 2-[4-[1-[6-(5-cyclopropyl-4H-1,2,4-triazol-3-yl)-2-azaspiro[3.3]heptane-2-carbonyl]azetidin-3-yl]phenyl]benzoic Acid] had an IC50 of 1.06 nM.

On to `CCNC(=O)c1ccccc1-c1ccc(C2CN(C(=O)N3CC4(CC(c5nnc(C6CC6)[nH]5)C4)C3)C2)cc1` [Example 391, 2-[4-[1-[6-(5-cyclopropyl-4H-1,2,4-triazol-3-yl)-2-azaspiro[3.3]heptane-2-carbonyl]azetidin-3 yl]phenyl]-N-ethyl-benzamide], for which the IC50 was determined as 48.3 nM.

Compound `O=C(N1CC(c2ccc(C3(C(=O)O)CC3)cc2)C1)N1CC2(CC(c3nnc(C4CC4)[nH]3)C2)C1` [Example 392, 1-[4 [1-[6-(5-cyclopropyl-4H-1,2,4-triazol-3-yl)-2-azaspiro[3.3]heptane-2-carbonyl]azetidin-3-yl]phenyl]cyclopropanecarboxylic Acid] yielded an IC50 of 6.59 nM.

`NC(=O)C1(c2ccc(C3CN(C(=O)N4CC5(CC(c6nnc(C7CC7)[nH]6)C5)C4)C3)cc2)CC1` [Example 393, 1-[4-[1-[6-(5-cyclopropyl-4H-1,2,4-triazol-3-yl)-2-azaspiro[3.3]heptane-2-carbonyl]azetidin-3-yl]phenyl]cyclopropanecarboaamide] displayed an IC50 of 1.2 nM.

`NC(=O)[C@@H]1CCCCN1c1ccc(C2CN(C(=O)N3CC4(CC(c5nnc(C6CC6)[nH]5)C4)C3)C2)cc1` [Example 394, (2S)-1-[4-[1-[6-(5-cyclopropyl-4H-1,2,4-triazol-3-yl)-2-azaspiro[3.3]heptane-2-carbonyl]azetidin-3 yl]phenyl]piperidine-2-carboxamide] returned an IC50 of 1.49 nM.

The compound `NC(=O)[C@@H]1CC(F)(F)CCN1c1ccc(C2CN(C(=O)N3CC4(CC(c5nnc(C6CC6)[nH]5)C4)C3)C2)cc1` [Example 395, (2S)-1-[4-[1-[6-(5-cyclopropyl-4H-1,2,4-triazol-3-yl)-2-azaspiro[3.3]heptane-2-carbonyl]azetidin-3-yl]phenyl]-4,4-difluoro-piperidine-2-carboxamide] had an IC50 of 1.28 nM.

Turning to `NC(=O)[C@H]1CC(F)(F)CCN1c1ccc(C2CN(C(=O)N3CC4(CC(c5nnc(C6CC6)[nH]5)C4)C3)C2)cc1` [Example 396, (2R)-1-[4-[1-[6-(5-cyclopropyl-4H-1,2,4-triazol-3-yl)-2-azaspiro[3.3]heptane-2-carbonyl]azetidin-3-yl]phenyl]-4,4-difluoro-piperidine-2-carboxamide], half-maximal inhibition (IC50) required 4.77 nM.

With `NC(=O)[C@@H]1CCCN1c1ccc(C2CN(C(=O)N3CC4(CC(c5nnc(C6CC6)[nH]5)C4)C3)C2)cc1` [Example 397, (2S)-1-[4-[1-[6-(5-cyclopropyl-4H-1,2,4-triazol-3-yl)-2-azaspiro[3.3]heptane-2-carbonyl]azetidin-3-yl]phenyl]pyrrolidine-2-carboxamide], 2.42 nM corresponded to half-maximal inhibition (IC50).

`NC(=O)[C@H]1CCCN1c1ccc(C2CN(C(=O)N3CC4(CC(c5nnc(C6CC6)[nH]5)C4)C3)C2)cc1` [Example 398, (2R)-1 [4-[1-[6-(5-cyclopropyl-4H-1,2,4-triazol-3-yl)-2-azaspiro[3.3]heptane-2-carbonyl]azetidin-3-yl]phenyl]pyrrolidine-2-carboxamide] gave an IC50 of 2.4 nM.

In turn, `CS(=O)(=O)c1cc(Cl)ccc1CC1CC2(CCN(C(=O)N3CC4(CC(c5nnc(C6CC6)[nH]5)C4)C3)C2)C1` (stereo not drawn) [Example 414, [2-(4-chloro-2-mesyl-benzyl)-6-azaspiro[3.4]octan-6-yl]-[6-(5-cyclopropyl-4H-1,2,4-triazol-3-yl)-2-azaspiro[3.3]heptan-2-yl]methanone] had an IC50 of 38.1 nM.

Consider `CC(C)(O)Cn1nc(C2CCN(C(=O)N3CC4(CC(c5nnc(C6CC6)[nH]5)C4)C3)CC2)c2cc(Cl)ccc21` [Example 416, [4-[5-chloro-1-(2-hydroxy-2-methyl-propyl)indazol-3-yl]piperidino]-[6-(5-cyclopropyl-4H-1,2,4-triazol-3-yl)-2-azaspiro[3.3]heptan-2-yl]methanone], for which half-maximal inhibition (IC50) was put at 13.3 nM.

Take `N=S(=O)(c1ccc(C(F)(F)F)cc1)C1CCC2(CC1)CN(C(=O)N1CC3(CC(c4nc(C5CC5)n[nH]4)C3)C1)C2` (stereo not drawn) [Example 429]: the IC50 was 11.8 nM.

Regarding `CCOc1cc(C)nn1-c1ccc(C2CN(C(=O)N3CC4(CC(c5nnc(C6CC6)[nH]5)C4)C3)C2)cc1` [Example 449, [6-(5-cyclopropyl-4H-1,2,4-triazol-3-yl)-2-azaspiro[3.3]heptan-2-yl]-[3-[4-(5-ethoxy-3-methyl-pyrazol-1-yl)phenyl]azetidin-1-yl]methanone], it took 0.45 nM to reach half-maximal inhibition (IC50).

Regarding `N=S(=O)(c1cccc(C(F)(F)F)c1)C1CCC2(CC1)CN(C(=O)N1CC3(CC(c4nc(C5CC5)n[nH]4)C3)C1)C2` (stereo not drawn) [Example 456], 8.88 nM corresponded to half-maximal inhibition (IC50).

`O=C(N1CC2(CC(c3nc(C4CC4)n[nH]3)C2)C1)C12CC(Nc3cnc(C(F)(F)F)cn3)(C1)C2` [Example 473, [6-(3-cyclopropyl-1H-1,2,4-triazol-5-yl)-2-azaspiro[3.3]heptan-2-yl]-[3-[[5-(trifluoromethyl)pyrazin-2-yl]amino]-1-bicyclo[1.1.1]pentanyl]methanone]: half-maximal inhibition (IC50) was put at 67.8 nM.

With `CS(=O)(=O)c1cnn(-c2ccc(C3CN(C(=O)N4CC5(CC(c6nnc(C7CC7)[nH]6)C5)C4)C3)cc2)c1` [Example 500, [6-(5-cyclopropyl-4H-1,2,4-triazol-3-yl)-2-azaspiro[3.3]heptan-2-yl]-[3-[4-(4-mesylpyrazol-1-yl)phenyl]azetidin-1-yl]methanone], half-maximal inhibition (IC50) required 9.48 nM.

Take `CS(=O)(=O)c1ccccc1-c1ccc(C2CN(C(=O)N3CC4(CC(c5nc(C6CC6)n[nH]5)C4)C3)C2)cc1` [Example 516, [6-(3-cyclopropyl-1H-1,2,4-triazol-5-yl)-2-azaspiro[3.3]heptan-2-yl]-[3-[4-(2-mesylphenyl)phenyl]azetidin-1-yl]methanone]: inhibition was half-maximal at 0.17 nM (IC50).

As to `CCOc1cc(C)n(-c2ccc(C3CN(C(=O)N4CC5(CC(c6nnc(C7CC7)[nH]6)C5)C4)C3)cc2)n1` [Example 559, [6-(5-cyclopropyl-4H-1,2,4-triazol-3-yl)-2-azaspiro[3.3]heptan-2-yl]-[3-[4-(3-ethoxy-5-methyl-pyrazol-1-yl)phenyl]azetidin-1-yl]methanone], the IC50 amounted to 0.46 nM.

Compound `N=S(=O)(c1ccc(COC2CN(C(=O)N3CC4(CC(c5nc(C6(O)CC6)n[nH]5)C4)C3)C2)c(F)c1)C(F)(F)F` (stereo not drawn) [Example 576, [3-[2-fluoro-4-(trifluoromethylsulfonimidoyl)benzyl]oxyazetidin-1-yl]-[6-[3-(1-hydroxycyclopropyl)-1H-1,2,4-triazol-5-yl]-2-azaspiro[3.3]heptan-2-yl]methanone] returned an IC50 of 85.1 nM.

For orientation: IC50 means the concentration needed to halve the response being measured.
